The values below come from ChEMBL document CHEMBL1138899, “Acyclic nucleoside analogues as inhibitors of Plasmodium falciparum dUTPase” (J Med Chem, 2006).

Data set [1] in a line: Stability in simulated gastric fluid after 5 mins. Type of data set: ADME. Particulars: read-out: Stability.
In the next data set the target is T1, dUTP pyrophosphatase (Plasmodium falciparum 3D7, UniProt Q8II92).
T1 sequence (Q8II92 whole entry): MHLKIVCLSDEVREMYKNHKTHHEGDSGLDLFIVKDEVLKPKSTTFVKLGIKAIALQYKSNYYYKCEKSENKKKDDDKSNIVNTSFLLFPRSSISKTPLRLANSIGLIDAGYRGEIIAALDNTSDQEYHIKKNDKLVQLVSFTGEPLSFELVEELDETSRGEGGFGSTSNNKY
Briefly: Inhibition of Plasmodium falciparum dUTPase.

In another data set the test system is Plasmodium falciparum. Nature of the data set: Antiplasmodial activity against Plasmodium falciparum. Type of data set: functional, organism-based.
Data set [2] in a line: Intrinsic clearance in human liver microsome. The following applies: liver microsomes. It counts as ADME. (Liver microsomes are a subcellular fraction often used to study metabolism.)
The subject of another data set is L6. Briefly: Cytotoxicity against rat L6 cells. It counts as functional, cell-based.
The target of data set [3] is T2, dUTP pyrophosphatase (Plasmodium falciparum 3D7) (UniProt Q8II92).
T2 sequence (whole entry): T1 sequence (Q8II92 whole entry)
Nature of the data set: Selectivity index, human dUTPase/Plasmodium falciparum dUTPase.

Data set [4] concerns the target T3, Deoxyuridine 5'-triphosphate nucleotidohydrolase, mitochondrial (Homo sapiens, UniProt P33316).
T3 sequence (P33316 whole entry): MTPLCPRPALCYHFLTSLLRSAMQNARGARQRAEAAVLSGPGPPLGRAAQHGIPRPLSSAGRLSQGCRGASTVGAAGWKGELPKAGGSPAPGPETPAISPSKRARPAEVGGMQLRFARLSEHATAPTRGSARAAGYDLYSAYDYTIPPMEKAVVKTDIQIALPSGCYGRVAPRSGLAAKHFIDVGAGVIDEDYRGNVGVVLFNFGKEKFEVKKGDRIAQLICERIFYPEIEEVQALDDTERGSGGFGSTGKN
Briefly: Inhibition of human recombinant dUTPase.

Data set [5] in a line: Stability in simulated gastric fluid after 150 mins. It counts as ADME. Particulars: read-out: Stability.

Regarding `O=c1ccn(CCCCOC(c2ccccc2)(c2ccccc2)c2ccccc2)c(=O)[nH]1`, in data set [1], the remaining at 5 min was 2%. In addition, the Ki – broadly, the equilibrium dissociation constant of an inhibitor or competing ligand from its target – at dUTP pyrophosphatase was 1.6 µM; in data set [4], > 1000 µM. Besides, the IC50 (as a rule, the point on the concentration scale where inhibition reaches its midpoint) with Plasmodium falciparum turned out to be 4.9 µM; in the data set on L6, 42 µM. The microsomal CLint (in general, the capacity of the preparation to metabolise the compound, expressed as a volume cleared per time) in data set [2] is 68 µL/min/mg. In data set [3], the Selectivity index was > 617.
Regarding `O=c1ccn(CCCCNC(c2ccccc2)(c2ccccc2)c2ccccc2)c(=O)[nH]1`, in data set [5], the remaining at 2.5 h is 94%. The IC50 came to 3.8 µM with Plasmodium falciparum and 33 µM in the data set on L6. This molecule registered a microsomal CLint in data set [2] of 64 µL/min/mg. For the same molecule, the Selectivity index in data set [3] was > 1110. Also, the Ki in data set [4] is > 1000 µM.
